Several values for one entry are separate records, joined by “and”; a condition that tells them apart may be missing. Equal values may be shown once.
Columns and labels:
[1] = test system: human colon cancer (HCT-116) cells; experiment: Cytotoxicity by MTT assay on HCT-116; format: cell-based; conditions: for IC50 / IC50 (μM) HCT-116: MTT assay, 48 h incubation; for cytotoxicity against HCT-116 (in words): MTT, close to 200 µM including SEM
Description: (§1) Cytotoxicity of the synthesized compounds was evaluated in cancer cells namely human colon cancer (HCT-116) cells and human breast cancer (MCF-7) cells and normal kidney epithelial cells (Vero). These cells were originally procured from National Cancer Center for Cell Science, Pune, India and cultured in our lab using Dulbecco's modified Eagles medium (DMEM) containing 10 % fetal bovine serum (FBS) at 37 °C in an atmosphere containing 5 % CO2. All other chemicals used in this study were purchased from Sigma-Aldrich, USA.
(§2) Cell suspension containing 1 x 10^4 cells in 0.1 mL was seeded in a 96 well plate for 24 h. Test compounds were serially diluted with the medium to get a stock solution of 400 µM, 200 µM, 100 µM, 50 µM. After 24 h of incubation, 100 µL of test solution from respective stocks was added in triplicate and incubated for 48 h. After the treatment, drug-containing media was removed and 20 µL of MTT reagent (5 mg/mL in PBS) was added to each well. After 4 h of incubation at 37 °C, the MTT reagent was removed and 100 µL of 100 % DMSO was added to each well to solubilize formazan crystals. The optical density was measured using an ELISA plate reader at 540 nm and percentage cytotoxicity was calculated. (Kumar et al., 2012[15]; Zi and Simoneau, 2005[31]).

[2] = test system: human breast cancer (MCF-7) cells; experiment: Cytotoxicity by MTT assay on MCF-7; format: cell-based; conditions: for IC50 (μM) MCF-7 / IC50: MTT assay, 48 h incubation; for cytotoxicity against MCF-7 (in words): MTT, close to 200 µM including SEM
Description: as §1, §2

[3] = test system: normal kidney epithelial cells (Vero); experiment: Cytotoxicity by MTT assay on Vero; format: cell-based; conditions: 48 h incubation
Description: as §1, §2

HCT-116 cells [4] = experiment: Cell cycle analysis by flow cytometry with propidium iodide; format: cell-based, human; conditions: for phase of cell cycle arrest: HCT-116, AC-10 100 µM, AC-13 and AC-14 50 µM, doxorubicin 1 µM
Description: Flow cytometric analysis technique evaluates the effect of test compounds on cell cycle progression and check-points. Cells (1 x 10^6) were seeded in 25 cm^2 flasks and, after overnight adherence, incubated with test compounds. Then cells were detached by trypsinization and mixed with floating cells, centrifuged and washed with PBS. The cell pellets were fixed in 70 % ice-cold methanol and stored at -20 °C for 24 h. After that cell pellets were washed with PBS and isotonic PI solution [25 µM propidium iodide, 0.03 % NP-40 and 40 µg /ml RNase A] was added. The stained cells were analyzed using Accuri C6 flow cytometer (BD Biosciences, San Jose, CA, USA) with excitation at 488 nm and emission at 575/40 nm (Reddy et al., 2015[25]).

HCT-116 cells [5] = experiment: Acridine orange/ethidium bromide (AO/EB) dual nuclear staining, apoptotic index; format: cell-based, human; conditions: HCT-116, AO/EB; for percentage apoptotic nuclei (apoptotic index): mean ± SEM
Description: DNA-binding dyes Acridine orange (AO) and Ethidium bromide (EB) (Sigma, USA) were used for the morphological detection of apoptotic cells. 5 x 10^3 cells were seeded per well in 24-well plates with DMEM, containing 10 % FBS. After 24 h, cells were treated with selected concentrations of test compounds and incubated for 24 h. The media was removed and plate was washed with phosphate buffer saline (PBS, pH 7.4). Cells were fixed in ice-cold methanol for 20 min, washed with PBS again and stained with acridine orange and ethidium bromide stain (20/30 µg/ml). After incubation for 20 min at 37 °C, and washing with PBS thrice, the plate was observed under a fluorescent microscope for morphological changes in nucleus such as condensed chromatin and fragmented nuclei. The apoptotic index (AI) was calculated as % of apoptotic cells from randomly counted 100 cells in each treatment group (Reddy et al., 2015[25]).

Molecule | IC50 ([1]; Homo sapiens, HCT-116) | IC50 (μM) MCF-7 [2] | IC50 ([3]; Chlorocebus sabaeus, Vero) | melting point | cytotoxicity against HCT-116 (in words) [1] | IC50 ([2]; Homo sapiens, MCF7) | cytotoxicity against MCF-7 (in words) [2] | further results
Nc1ccc(O)c(C(=O)/C=C/c2ccc(OCc3ccccc3)cc2)c1 [AC-15, (E)-1-(5-Amino-2-Hydroxyphenyl)-3-(4-benzyloxyphenyl)prop-2-en-1-one] | 211 ± 26 µM | No activity | > 200 µM | 136 to 138 °C |  |  |  | 
Nc1ccc(O)c(C(=O)/C=C/c2ccc(Cl)cc2)c1 [AC-2, (E)-1-(5-Amino-2-Hydroxyphenyl)-3-(4-chlorophenyl)prop-2-en-1-one] | 205 ± 3.15 µM | No activity | > 200 µM | 138 °C | high cytotoxicity |  |  | 
(E)-1-(5-Amino-2-Hydroxyphenyl)-3-(3,4-dichlorophenyl)prop-2-en-1-one [AC-12] |  |  |  |  |  |  |  | IC50 [1]: 169 ± 66.7 µM; IC50 [2]: 236 ± 9.8 µM; IC50 [3]: > 200 µM
Nc1ccc(O)c(C(=O)/C=C/c2cccc([N+](=O)[O-])c2)c1 [AC-4, (E)-1-(5-Amino-2-Hydroxyphenyl)-3-(3-nitrophenyl)prop-2-en-1-one] | 309 ± 74.1 µM | No activity | > 200 µM | 112 °C |  |  |  | 
Nc1ccc(O)c(C(=O)/C=C/c2ccc(F)cc2)c1 [AC-3, (E)-1-(5-Amino-2-Hydroxyphenyl)-3-(4-fluorophenyl)prop-2-en-1-one] | 174 ± 3.53 µM |  | > 200 µM | 154 °C | high cytotoxicity | 542 ± 38.5 µM |  | 
COc1ccc(/C=C/C(=O)c2cc(N)ccc2O)cc1OC [AC-9, (E)-1-(5-Amino-2-Hydroxyphenyl)-3-(3,4-dimethoxyphenyl)prop-2-en-1-one] | 186 ± 7.3 µM |  | > 200 µM | 90 °C | high cytotoxicity | 190 ± 10.5 µM | high cytotoxicity | 
COc1ccc(/C=C/C(=O)c2cc(N)ccc2O)cc1 [AC-11, (E)-1-(5-Amino-2-Hydroxyphenyl)-3-(4-methoxyphenyl)prop-2-en-1-one] |  |  | > 200 µM | 102 to 104 °C |  | 1030 ± 60.6 µM |  | IC50 (μM) HCT-116 [1]: No activity
COc1cccc2c1C(=O)c1c(O)c3c(c(O)c1C2=O)C[C@@](O)(C(=O)CO)C[C@@H]3O[C@H]1C[C@H](N)[C@H](O)[C@H](C)O1 [doxorubicin, reference compound] |  |  |  |  |  |  |  | more accumulation of cells in G2/M phase as compared to normal control (HCT-116 cells [4]; HCT-116, 1 µM (standard), normal control 23.0 %): 7.4%; phase of cell cycle arrest (HCT-116 cells [4]): G2/M phase
CCOc1ccc(/C=C/C(=O)c2cc(N)ccc2O)cc1 [AC-5, (E)-1-(5-Amino-2-Hydroxyphenyl)-3-(4-ethoxyphenyl)prop-2-en-1-one] |  | No activity | > 200 µM | 135 °C |  |  |  | IC50 (μM) HCT-116 [1]: No activity
Nc1ccc(O)c(C(=O)/C=C/c2ccccc2)c1 [AC-1, (E)-1-(5-Amino-2-Hydroxyphenyl)-3-phenylprop-2-en-1-one] | 299 ± 49.8 µM |  | > 200 µM | 126 °C |  | 1960 ± 776 µM |  | 
Nc1ccc(O)c(C(=O)/C=C/c2ccc3c(c2)OCO3)c1 [AC-13, (E)-1-(5-Amino-2-Hydroxyphenyl)-3-(3,4-methylenedioxyphenyl)prop-2-en-1-one] | 42.1 ± 4 µM |  | > 200 µM | 128 °C | high cytotoxicity | 130 ± 3.8 µM | high cytotoxicity | increase in apoptotic nuclei compared to medium control (HCT-116 cells [5]; 50 µM): about five; percentage apoptotic nuclei (apoptotic index) (HCT-116 cells [5]; 50 µM): 31% and 31 ± 4.16%; % cells in G0/G1 phase (M1) (HCT-116 cells [4]; HCT-116, 50 µM, 48 h treatment): 66.5%; % cells in G2/M phase (M3) (HCT-116 cells [4]; HCT-116, 50 µM, 48 h treatment): 25.1%; phase of cell cycle arrest (HCT-116 cells [4]): G0/G1 and G2/M phase
COc1cc(/C=C/C(=O)c2cc(N)ccc2O)cc(OC)c1OC [AC-14, (E)-1-(5-Amino-2-Hydroxyphenyl)-3-(3,4,5-trimethoxyphenyl)prop-2-en-1-one] | 62 ± 2.3 µM |  | > 200 µM | 136 to 138 °C | high cytotoxicity | 197 ± 7.9 µM | high cytotoxicity | percentage apoptotic nuclei (apoptotic index) (HCT-116 cells [5]; 50 µM): 24.3 ± 3.53%; % cells in G0/G1 phase (M1) (HCT-116 cells [4]; HCT-116, 50 µM, 48 h treatment): 70.8%; phase of cell cycle arrest (HCT-116 cells [4]): G0/G1 phase
COc1cccc(/C=C/C(=O)c2cc(N)ccc2O)c1 [AC-6, (E)-1-(5-Amino-2-Hydroxyphenyl)-3-(3-methoxyphenyl)prop-2-en-1-one] |  | No activity | > 200 µM | 110 °C |  |  |  | IC50 (μM) HCT-116 [1]: No activity
COc1ccc(/C=C/C(=O)c2cc(N)ccc2O)cc1O [AC-8, (E)-1-(5-Amino-2-Hydroxyphenyl)-3-(3-hydroxy-4-methoxyphenyl)prop-2-en-1-one] | 123 ± 7.2 µM |  | > 200 µM | 136 °C | high cytotoxicity | 171 ± 12.9 µM | high cytotoxicity | 
COc1cc(/C=C/C(=O)c2cc(N)ccc2O)ccc1O [AC-7, (E)-1-(5-Amino-2-Hydroxyphenyl)-3-(4-hydroxy-3-methoxyphenyl)prop-2-en-1-one] | 393 ± 77.9 µM |  | > 200 µM | 136 °C |  | 248 ± 4.31 µM |  | 
Nc1ccc(O)c(C(=O)/C=C/c2ccccc2O)c1 [AC-10, (E)-1-(5-Amino-2-Hydroxyphenyl)-3-(2-hydroxyphenyl)prop-2-en-1-one] | 95.4 ± 1.7 µM |  | > 200 µM | 130 to 132 °C | high cytotoxicity | 74.7 ± 3.5 µM | high cytotoxicity | percentage apoptotic nuclei (apoptotic index) (HCT-116 cells [5]; 100 µM): 27 ± 3.21%; % cells in G0/G1 phase (M1) (HCT-116 cells [4]; HCT-116, 100 µM, 48 h treatment): 70.5%; phase of cell cycle arrest (HCT-116 cells [4]): G0/G1 phase
